{"source": "patent US20260355165A1", "about": "“2,3,4,9-TETRAHYDRO-1H-PYRIDO[3,4-B]INDOLE DERIVATIVES AS ESTROGEN RECEPTOR MODULATORS FOR THE TREATMENT OF CANCER” (Olema Pharmaceuticals, Inc., priority 2022, published 2026)", "data": [{"target": "T1, estrogen receptor (Homo sapiens, UniProt P03372)", "T1 construct": "endogenous in cells; host or cells: ECC-1 cells", "T1 sequence (P03372 1-595)": "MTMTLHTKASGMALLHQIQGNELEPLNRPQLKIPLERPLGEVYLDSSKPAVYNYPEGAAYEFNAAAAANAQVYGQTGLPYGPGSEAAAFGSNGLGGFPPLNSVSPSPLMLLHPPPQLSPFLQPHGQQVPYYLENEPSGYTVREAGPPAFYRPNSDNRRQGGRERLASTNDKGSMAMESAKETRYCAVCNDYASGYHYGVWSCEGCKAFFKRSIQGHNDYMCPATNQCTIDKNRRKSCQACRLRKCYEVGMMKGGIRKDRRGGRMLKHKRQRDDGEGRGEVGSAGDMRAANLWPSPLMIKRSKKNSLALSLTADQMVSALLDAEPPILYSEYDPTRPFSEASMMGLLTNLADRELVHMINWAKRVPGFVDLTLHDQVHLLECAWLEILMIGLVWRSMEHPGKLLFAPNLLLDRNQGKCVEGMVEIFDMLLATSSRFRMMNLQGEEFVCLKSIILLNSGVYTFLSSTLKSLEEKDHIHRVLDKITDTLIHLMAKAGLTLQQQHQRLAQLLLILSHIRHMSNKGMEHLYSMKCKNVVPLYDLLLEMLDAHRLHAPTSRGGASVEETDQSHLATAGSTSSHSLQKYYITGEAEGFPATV", "test": "AP assay (alkaline phosphatase activity in ECC-1 cells), agonist mode (absence of E2) and antagonist mode (presence of 500 pM E2)", "format": "cell-based", "conditions": "3 days, AP activity normalized to 500 pM E2 alone, agonist and antagonist mode combined", "outline": "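Read-out is absorbance at 405 nm from p-nitrophenyl phosphate cleavage (40 min, 42 °C), expressed relative to 500 pM E2 alone. Compounds were applied to ECC-1 cells in hormone-depleted medium for 3 days, either alone (agonist) or alongside 500 pM E2 (antagonist).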", "values": [{"smiles": "C[C@@H]1Cc2c([nH]c3ccccc23)[C@@H](c2c[nH]c3cc(CC4CN(C)C4)ccc23)N1CC(C)(C)F", "note": "[Compound I-30, (1R,3R)-2-(2-fluoro-2-methyl-propyl)-3-methyl-1-[6-[(1-methylazetidin-3-yl)methyl]-1H-indol-3-yl]-1,3,4,9-tetrahydropyrido[3,4-b]indole]", "Activity (estrogen receptor modulation, e.g., agonism and antagonism)": "+ (estrogen receptor agonism having (i) at least 80% increase in the E2-normalized signal in the AP assay (agonist mode) and (ii) no more than 80% reduction in the E2-normalized signal in the AP assay (antagonist mode))"}, {"smiles": "C[C@@H]1Cc2c([nH]c3ccccc23)[C@@H](c2ccc3[nH]c(CN4CC5CC5C4)cc3c2)N1CC(C)(C)F", "note": "(stereo partly drawn) [Compound I-43, (1R,3R)-1-[2-(3-azabicyclo[3.1.0]hexan-3-ylmethyl)-1H-indol-5-yl]-2-(2-fluoro-2-methyl-propyl)-3-methyl-1,3,4,9-tetrahydropyrido[3,4-b]indole]", "Activity (estrogen receptor modulation, e.g., agonism and antagonism)": "+ (estrogen receptor agonism having (i) at least 80% increase in the E2-normalized signal in the AP assay (agonist mode) and (ii) no more than 80% reduction in the E2-normalized signal in the AP assay (antagonist mode))"}, {"smiles": "C[C@@H]1Cc2c([nH]c3ccccc23)[C@@H](c2ccc3[nH]c(CN4CC(C)(C)C4)cc3c2)N1CC(C)(C)F", "note": "[Compound I-92, (1R,3R)-1-[2-[(3,3-dimethylazetidin-1-yl)methyl]-1H-indol-5-yl]-2-(2-fluoro-2-methyl-propyl)-3-methyl-1,3,4,9-tetrahydropyrido[3,4-b]indole]", "Activity (estrogen receptor modulation, e.g., agonism and antagonism)": "+ (estrogen receptor agonism having (i) at least 80% increase in the E2-normalized signal in the AP assay (agonist mode) and (ii) no more than 80% reduction in the E2-normalized signal in the AP assay (antagonist mode))"}, {"smiles": "CC1CN(Cc2cc3sc([C@@H]4c5[nH]c6ccccc6c5C[C@@H](C)N4CC(C)(C)F)cc3[nH]2)C1", "note": "[Compound I-66, 2-[(1S,3R)-2-(2-fluoro-2-methyl-propyl)-3-methyl-1,3,4,9-tetrahydropyrido[3,4-b]indol-1-yl]-5-[(3-methylazetidin-1-yl)methyl]-4H-thieno[3,2-b]pyrrole]", "Activity (estrogen receptor modulation, e.g., agonism and antagonism)": "+ (estrogen receptor agonism having (i) at least 80% increase in the E2-normalized signal in the AP assay (agonist mode) and (ii) no more than 80% reduction in the E2-normalized signal in the AP assay (antagonist mode))"}, {"smiles": "C[C@@H]1Cc2c([nH]c3ccccc23)[C@@H](c2ccc3[nH]c(CO)cc3c2)N1CC(C)(C)F", "note": "[Compound I-93, [5-[(1R,3R)-2-(2-fluoro-2-methyl-propyl)-3-methyl-1,3,4,9-tetrahydropyrido[3,4-b]indol-1-yl]-1H-indol-2-yl]methanol]", "Activity (estrogen receptor modulation, e.g., agonism and antagonism)": "+ (estrogen receptor agonism having (i) at least 80% increase in the E2-normalized signal in the AP assay (agonist mode) and (ii) no more than 80% reduction in the E2-normalized signal in the AP assay (antagonist mode))"}, {"smiles": "C[C@@H]1Cc2c([nH]c3ccccc23)[C@@H](c2cnc3[nH]c(CN4CC(CF)C4)cc3c2)N1CC(C)(C)F", "note": "[Compound I-69, (1R,3R)-1-[2-[[3-(fluoromethyl)azetidin-1-yl]methyl]-1H-pyrrolo[2,3-b]pyridin-5-yl]-2-(2-fluoro-2-methyl-propyl)-3-methyl-1,3,4,9-tetrahydropyrido[3,4-b]indole]", "Activity (estrogen receptor modulation, e.g., agonism and antagonism)": "++ (estrogen receptor antagonism having (i) between 10% and 80% increase in the E2-normalized signal in the AP assay (agonist mode) and (ii) between 10% and 80% reduction in the E2-normalized signal in the AP assay (antagonist mode))"}, {"smiles": "C[C@@H]1Cc2c([nH]c3ccccc23)[C@@H](c2cc3nc(CN4CC(CF)C4)oc3cc2F)N1CC(C)(C)F", "note": "[Compound I-78, 6-fluoro-2-[[3-(fluoromethyl)azetidin-1-yl]methyl]-5-[(1R,3R)-2-(2-fluoro-2-methyl-propyl)-3-methyl-1,3,4,9-tetrahydropyrido[3,4-b]indol-1-yl]-1,3-benzoxazole]", "Activity (estrogen receptor modulation, e.g., agonism and antagonism)": "+ (estrogen receptor agonism having (i) at least 80% increase in the E2-normalized signal in the AP assay (agonist mode) and (ii) no more than 80% reduction in the E2-normalized signal in the AP assay (antagonist mode))"}, {"smiles": "C[C@@H]1Cc2c([nH]c3ccccc23)[C@@H](c2n[nH]c3cc(CN4CC(CF)C4)ccc23)N1CC(F)F", "note": "[Compound I-36, (1S,3R)-2-(2,2-difluoroethyl)-1-(6-((3-(fluoromethyl)azetidin-1-yl)methyl)-1H-indazol-3-yl)-3-methyl-2,3,4,9-tetrahydro-1H-pyrido[3,4-b]indole]", "Activity (estrogen receptor modulation, e.g., agonism and antagonism)": "++ (estrogen receptor antagonism having (i) between 10% and 80% increase in the E2-normalized signal in the AP assay (agonist mode) and (ii) between 10% and 80% reduction in the E2-normalized signal in the AP assay (antagonist mode))"}, {"smiles": "C[C@@H]1Cc2c([nH]c3ccccc23)[C@@H](c2c[nH]c3cc(CN(C)CCCF)ccc23)N1CC(C)(C)F", "note": "[Compound I-9, 3-fluoro-N-[[3-[(1R,3R)-2-(2-fluoro-2-methyl-propyl)-3-methyl-1,3,4,9-tetrahydropyrido[3,4-b]indol-1-yl]-1H-indol-6-yl]methyl]-N-methyl-propan-1-amine]", "Activity (estrogen receptor modulation, e.g., agonism and antagonism)": "+ (estrogen receptor agonism having (i) at least 80% increase in the E2-normalized signal in the AP assay (agonist mode) and (ii) no more than 80% reduction in the E2-normalized signal in the AP assay (antagonist mode))"}, {"smiles": "C[C@@H]1Cc2c([nH]c3ccccc23)[C@@H](c2ccn3cc(CN4CC(CF)C4)nc3c2)N1CC(C)(C)F", "note": "[Compound I-74, (1R,3R)-1-[2-[[3-(fluoromethyl)azetidin-1-yl]methyl]imidazo[1,2-a]pyridin-7-yl]-2-(2-fluoro-2-methyl-propyl)-3-methyl-1,3,4,9-tetrahydropyrido[3,4-b]indole]", "Activity (estrogen receptor modulation, e.g., agonism and antagonism)": "+++ (estrogen receptor antagonism (i) with pIC50 greater than 7.5 and at least a 10% reduction in the E2-normalized signal in the AP assay (antagonist mode); and (ii) no more than 10% increase in E2-normalized signal in the AP assay (agonist mode))"}, {"smiles": "CC1CN(Cc2cnc3[nH]cc([C@@H]4c5[nH]c6ccccc6c5C[C@@H](C)N4CC(C)(C)F)c3c2)C1", "note": "[Compound I-59, (1R,3R)-2-(2-fluoro-2-methyl-propyl)-3-methyl-1-[5-[(3-methylazetidin-1-yl)methyl]-1H-pyrrolo[2,3-b]pyridin-3-yl]-1,3,4,9-tetrahydropyrido[3,4-b]indole]", "Activity (estrogen receptor modulation, e.g., agonism and antagonism)": "+ (estrogen receptor agonism having (i) at least 80% increase in the E2-normalized signal in the AP assay (agonist mode) and (ii) no more than 80% reduction in the E2-normalized signal in the AP assay (antagonist mode))"}, {"smiles": "C[C@@H]1Cc2c([nH]c3ccccc23)[C@@H](c2ccc3[nH]c(CN4CC(F)C4)cc3c2)N1CC(C)(C)F", "note": "[Compound I-90, (1R,3R)-1-[2-[(3-fluoroazetidin-1-yl)methyl]-1H-indol-5-yl]-2-(2-fluoro-2-methyl-propyl)-3-methyl-1,3,4,9-tetrahydropyrido[3,4-b]indole]", "Activity (estrogen receptor modulation, e.g., agonism and antagonism)": "+ (estrogen receptor agonism having (i) at least 80% increase in the E2-normalized signal in the AP assay (agonist mode) and (ii) no more than 80% reduction in the E2-normalized signal in the AP assay (antagonist mode))"}, {"smiles": "C[C@@H]1Cc2c([nH]c3ccccc23)[C@@H](c2ccc3c(c2)nc(CN2CC(CF)C2)[s+]3[O-])N1CC(C)(C)F", "note": "(stereo partly drawn) [Compound I-104, 2-[[3-(fluoromethyl)azetidin-1-yl]methyl]-5-[(1R,3R)-2-(2-fluoro-2-methyl-propyl)-3-methyl-1,3,4,9-tetrahydropyrido[3,4-b]indol-1-yl]-1,3-benzothiazole 1-oxide]", "Activity (estrogen receptor modulation, e.g., agonism and antagonism)": "+ (estrogen receptor agonism having (i) at least 80% increase in the E2-normalized signal in the AP assay (agonist mode) and (ii) no more than 80% reduction in the E2-normalized signal in the AP assay (antagonist mode))"}, {"smiles": "C[C@@H]1Cc2c([nH]c3ccccc23)[C@@H](c2cc3cc(CN4CC(CF)C4)ccc3[nH]2)N1CC(C)(C)F", "note": "[Compound I-41, (1R,3R)-1-[5-[[3-(fluoromethyl)azetidin-1-yl]methyl]-1H-indol-2-yl]-2-(2-fluoro-2-methyl-propyl)-3-methyl-1,3,4,9-tetrahydropyrido[3,4-b]indole]", "Activity (estrogen receptor modulation, e.g., agonism and antagonism)": "++ (estrogen receptor antagonism having (i) between 10% and 80% increase in the E2-normalized signal in the AP assay (agonist mode) and (ii) between 10% and 80% reduction in the E2-normalized signal in the AP assay (antagonist mode))"}, {"smiles": "CCC1CN(Cc2cc3cc([C@@H]4c5[nH]c6ccccc6c5C[C@@H](C)N4CC(C)(C)F)ccc3[nH]2)C1", "note": "[Compound I-91, (1R,3R)-1-[2-[(3-ethylazetidin-1-yl)methyl]-1H-indol-5-yl]-2-(2-fluoro-2-methyl-propyl)-3-methyl-1,3,4,9-tetrahydropyrido[3,4-b]indole]", "Activity (estrogen receptor modulation, e.g., agonism and antagonism)": "+ (estrogen receptor agonism having (i) at least 80% increase in the E2-normalized signal in the AP assay (agonist mode) and (ii) no more than 80% reduction in the E2-normalized signal in the AP assay (antagonist mode))"}]}]}
